Laboratory results as given in patent US8148391B2 (Cephalon, Inc., priority 2006, dated 2012).
Read-outs that look alike come from different tables or passages of the source.

Columns and labels:
[1] = molecular target: T1, baculovirus-expressed ALK (Homo sapiens, UniProt Q9UM73); assay: ALK Kinase Assay (ELISA-type, time-resolved fluorescence); format: biochemical
T1 construct: host or cells: baculovirus expression system
In short: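 Plates coated with phospholipase C-γ substrate (10 μg/mL in TBS); reaction started with 30 ng/ml ALK and run 15 min at 37° C. Phosphorylated substrate detected with Eu-N1-labeled PT66 antibody. IC50 from sigmoidal variable-slope fit of percent inhibition vs log concentration.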

[2] = molecular target: T2, c-Met (cytoplasmic domain) (Homo sapiens, UniProt P08581); assay: c-Met Kinase Assay (same methods as for ALK, with modifications); format: biochemical
T2 construct: 10 ng/mL c-Met (cytoplasmic domain, Invitrogen Corporation #PV3143); purchased Invitrogen Corporation PV3143
T2 sequence (P08581 956-1390 limits assumed): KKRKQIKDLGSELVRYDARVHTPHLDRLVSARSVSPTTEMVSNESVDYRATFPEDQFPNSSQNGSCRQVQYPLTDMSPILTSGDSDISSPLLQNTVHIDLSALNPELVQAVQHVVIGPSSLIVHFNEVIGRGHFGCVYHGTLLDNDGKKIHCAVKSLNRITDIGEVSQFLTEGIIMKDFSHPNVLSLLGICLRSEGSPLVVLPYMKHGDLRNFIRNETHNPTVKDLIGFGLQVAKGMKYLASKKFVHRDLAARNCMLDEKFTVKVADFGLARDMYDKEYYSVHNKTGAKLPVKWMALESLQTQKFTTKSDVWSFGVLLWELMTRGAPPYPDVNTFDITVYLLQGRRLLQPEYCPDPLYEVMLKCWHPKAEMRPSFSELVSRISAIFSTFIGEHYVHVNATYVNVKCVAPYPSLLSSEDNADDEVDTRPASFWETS
In short: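 Plates were coated with phospholipase C-γ substrate (10 μg/mL) in TBS, and the reaction was started with 10 ng/mL c-Met cytoplasmic domain and run 15 min at 37 °C. Phosphoproduct was detected with Eu-N1-labelled PT66 antibody. IC50 came from a variable-slope sigmoidal fit of percent inhibition vs log concentration.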

[3] = 1 μM ATP (Km level), 30 ng/ml ALK, 37° C., 15 minutes, read-out: ALK Activity (ALK kinase inhibition, IC50 class)
[4] = 1 μM ATP (Km level), 10 ng/mL c-Met, read-out: cMet Activity (c-Met kinase inhibition, IC50 class)
[5] = ALK kinase inhibition, 1 μM ATP, read-out: ALK Activity
[6] = c-Met kinase inhibition, 1 μM ATP, read-out: cMet Activity
[7] = ALK kinase inhibition, 1 μM ATP (Km level), read-out: ALK Activity
[8] = c-Met kinase inhibition, 1 μM ATP (Km level), read-out: cMet Activity
[9] = 1 μM ATP (Km level), read-out: ALK Activity (ALK Kinase Inhibition, IC50)
[10] = 1 μM ATP (Km level), read-out: cMet Activity (c-Met Kinase Inhibition, IC50)

T1 sequence (Q9UM73 19-1620): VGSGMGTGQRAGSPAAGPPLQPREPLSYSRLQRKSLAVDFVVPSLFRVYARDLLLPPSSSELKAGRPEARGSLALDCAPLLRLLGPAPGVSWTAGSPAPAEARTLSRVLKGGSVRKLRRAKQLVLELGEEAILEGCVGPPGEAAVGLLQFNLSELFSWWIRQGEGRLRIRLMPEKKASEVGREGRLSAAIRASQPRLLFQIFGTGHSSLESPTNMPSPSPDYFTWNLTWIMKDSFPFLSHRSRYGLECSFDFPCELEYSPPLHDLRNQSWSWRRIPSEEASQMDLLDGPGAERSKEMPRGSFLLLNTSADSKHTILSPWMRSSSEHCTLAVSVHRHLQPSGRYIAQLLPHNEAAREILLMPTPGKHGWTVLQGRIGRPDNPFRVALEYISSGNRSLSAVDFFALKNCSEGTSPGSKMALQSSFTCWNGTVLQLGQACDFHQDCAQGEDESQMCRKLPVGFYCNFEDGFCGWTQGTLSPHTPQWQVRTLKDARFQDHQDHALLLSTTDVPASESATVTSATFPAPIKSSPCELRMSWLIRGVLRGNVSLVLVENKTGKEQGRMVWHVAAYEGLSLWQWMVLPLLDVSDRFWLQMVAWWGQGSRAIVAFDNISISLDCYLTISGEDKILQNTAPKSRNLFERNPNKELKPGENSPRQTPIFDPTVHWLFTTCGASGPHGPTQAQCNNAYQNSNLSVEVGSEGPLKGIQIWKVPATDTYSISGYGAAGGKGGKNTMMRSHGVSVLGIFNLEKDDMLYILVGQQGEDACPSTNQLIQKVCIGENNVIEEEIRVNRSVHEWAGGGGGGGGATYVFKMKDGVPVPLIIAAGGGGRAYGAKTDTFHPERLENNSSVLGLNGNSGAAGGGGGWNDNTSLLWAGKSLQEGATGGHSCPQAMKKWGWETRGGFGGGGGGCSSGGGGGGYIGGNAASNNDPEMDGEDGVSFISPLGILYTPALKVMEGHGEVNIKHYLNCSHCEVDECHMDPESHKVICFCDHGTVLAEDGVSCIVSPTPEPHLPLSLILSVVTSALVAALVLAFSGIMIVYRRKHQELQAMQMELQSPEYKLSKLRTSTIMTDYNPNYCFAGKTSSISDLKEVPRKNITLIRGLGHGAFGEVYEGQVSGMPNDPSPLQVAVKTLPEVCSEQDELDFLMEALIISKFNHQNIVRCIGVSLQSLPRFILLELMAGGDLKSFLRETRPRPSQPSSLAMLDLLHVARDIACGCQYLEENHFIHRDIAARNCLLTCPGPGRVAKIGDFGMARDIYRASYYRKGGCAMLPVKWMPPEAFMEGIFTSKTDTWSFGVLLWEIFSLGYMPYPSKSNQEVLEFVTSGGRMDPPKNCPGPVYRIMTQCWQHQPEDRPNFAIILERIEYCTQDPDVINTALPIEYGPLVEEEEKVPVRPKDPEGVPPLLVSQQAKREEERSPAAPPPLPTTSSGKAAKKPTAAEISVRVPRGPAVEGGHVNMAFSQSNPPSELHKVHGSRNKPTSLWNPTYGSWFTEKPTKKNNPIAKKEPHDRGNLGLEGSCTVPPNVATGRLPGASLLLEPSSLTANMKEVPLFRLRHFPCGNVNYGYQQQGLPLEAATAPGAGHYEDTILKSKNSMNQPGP

Row | Compound | IC50 [1, 7] | IC50 [2, 8] | IC50 [1, 9] | IC50 [2, 10] | further results
1 | COc1cc2c(cc1Nc1ncc(Cl)c(Nc3ccccc3S(=O)(=O)N3CCC(O)C3)n1)CCNC(=O)C2 (centres unmarked) [Example 1193, 7-{5-Chloro-4-[2-(3-hydroxy-pyrrolidine-1-sulfonyl)-phenylamino]-pyrimidin-2-ylamino}-8-methoxy-1,3,4,5-tetrahydro-benzo[d]azepin-2-one] |  |  |  |  | IC50 [1, 3]: < 100 nM; IC50 [2, 4]: 100 to 1000 nM
2 | CC(C)N1CCCC(C)(C)c2ccc(Nc3ncc(Cl)c(N[C@H]4[C@@H](C(N)=O)[C@@H]5C=C[C@H]4C5)n3)cc21 [Example 1628, (1S,2S,3R,4R)-3-[5-Chloro-2-(1-isopropyl-5,5-dimethyl-2,3,4,5-tetrahydro-1H-benzo[b]azepin-8-ylamino)-pyrimidin-4-ylamino]-bicyclo[2.2.1]hept-5-ene-2-carboxylic acid amide] |  |  |  |  | IC50 [1, 5]: < 100 nM; IC50 [2, 6]: > 10000 nM
3 | CCN1CCc2ccc(Nc3ncc(Cl)c(Nc4ccc(N5CCOCC5)cc4)n3)cc2CC1 [Example 443, 5-Chloro-N*2*-(3-ethyl-2,3,4,5-tetrahydro-1H-benzo[d]azepin-7-yl)-N*4*-(4-morpholin-4-yl-phenyl)-pyrimidine-2,4-diamine] | < 100 nM | 1000 to 10000 nM |  |  | 
4 | COc1c(Nc2ncc(Cl)c(N[C@H]3[C@@H](C(N)=O)[C@@H]4C=C[C@H]3C4)n2)ccc2c1CCC(NCCO)CC2 (single isomer, unassigned) [Example 697] |  |  | < 100 nM | 1000 to 10000 nM | 
5 | CNS(=O)(=O)c1ccccc1Nc1nc(Nc2ccc3c(c2)CCN(CCOC)CC3)ncc1Cl [Example 35, 2-{5-Chloro-2-[3-(2-methoxy-ethyl)-2,3,4,5-tetrahydro-1H-benzo[d]azepin-7-ylamino]-pyrimidin-4-ylamino}-N-methyl-benzenesulfonamide] | < 100 nM | 100 to 1000 nM |  |  | 
6 | NC(=O)C1C2C=CC(C2)C1Nc1nc(Nc2ccc3c(c2)CNC(=O)CC3)ncc1Cl (stereo not drawn) [Example 1797, 3-exo-[5-Chloro-2-(3-oxo-2,3,4,5-tetrahydro-1H-benzo[c]azepin-8-ylamino)-pyrimidin-4-yl]aminobicyclo[2.2.1]hept-5-ene-2-exo-carboxamide] |  |  |  |  | IC50 [1, 5]: < 100 nM; IC50 [2, 6]: 100 to 1000 nM
7 | CC(=O)N(C)Cc1ccccc1Nc1nc(Nc2ccc3c(c2)CCOC(=O)N3C)ncc1Cl [Example 1792, N-{2-[5-Chloro-2-(5-methyl-6-oxo-5,6,8,9-tetrahydro-7-oxa-5-aza-benzocyclohepten-2-ylamino)-pyrimidin-4-ylamino]-benzyl}-N-methyl-acetamide] |  |  |  |  | IC50 [1, 5]: 1000 to 10000 nM; IC50 [2, 6]: 1000 to 10000 nM
8 | N-((1R,2R)-2-{5-Chloro-2-[7-(2,2,2-trifluoro-ethylamino)-6,7,8,9-tetrahydro-5H-benzocyclohepten-2-ylamino]-pyrimidin-4-ylamino}-cyclohexyl)-methanesulfonamide [Example 687] |  |  | < 100 nM | > 10000 nM | 
9 | CCN1CC(=O)N(C)c2cc(Nc3ncc(Cl)c(Nc4ccc(OC)c(CNCCO)c4)n3)c(OC)cc2C1 [Example 749, 8-(5-Chloro-4-{3-[(2-hydroxy-ethylamino)-methyl]-4-methoxy-phenylamino}-pyrimidin-2-ylamino)-4-ethyl-7-methoxy-1-methyl-1,3,4,5-tetrahydro-benzo[e][1,4]diazepin-2-one] |  |  | 100 to 1000 nM | > 10000 nM | 
10 | N-((1R,2R)-2-{5-Chloro-2-[(1R,8S)-10-(2,2,2-trifluoro-acetyl)-10-aza-tricyclo[6.3.2.0*2,7*]trideca-2,4,6-trien-4-ylamino]-pyrimidin-4-ylamino}-cyclohexyl)-methanesulfonamide and N-((1R,2R)-2-{5-Chloro-2-[(1S,8R)-10-(2,2,2-trifluoro-acetyl)-10-aza-tricyclo[6.3.2.0*2,7*]trideca-2,4,6-trien-4-ylamino]-pyrimidin-4-ylamino}-cyclohexyl)-methanesulfonamide [Example 345] | < 100 nM | < 100 nM |  |  | 
11 | CS(=O)(=O)Nc1ccccc1Nc1nc(Nc2ccc3c(c2)C2CCC3CN(C(=O)C(F)(F)F)C2)ncc1Cl (centres unmarked) [Example 291, N-(2-{5-Chloro-2-[10-(2,2,2-trifluoro-acetyl)-10-aza-tricyclo[6.3.2.0*2,7*]trideca-2,4,6-trien-4-ylamino]-pyrimidin-4-ylamino}-phenyl)-methanesulfonamide] | < 100 nM | 1000 to 10000 nM |  |  | 
12 | CNC(=O)c1ccccc1Nc1nc(Nc2ccc3c(c2)CCN(C[C@H](OC)C(F)(F)F)CC3)ncc1Cl [Example 335, 2-{5-Chloro-2-[3-((S)-3,3,3-trifluoro-2-methoxy-propyl)-2,3,4,5-tetrahydro-1H-benzo[d]azepin-7-ylamino]-pyrimidin-4-ylamino}-N-methyl-benzamide] | < 100 nM | < 100 nM |  |  | 
13 | CNC(=O)C1(Nc2nc(Nc3cc4c(cc3OC)CCN(CC(=O)N(C)C)CC4)ncc2Cl)CC1 [Example 1198, 1-[5-Chloro-2-(3-dimethylcarbamoylmethyl-8-methoxy-2,3,4,5-tetrahydro-1H-benzo[d]azepin-7-ylamino)-pyrimidin-4-ylamino]-cyclopropanecarboxylic acid methylamide] |  |  |  |  | IC50 [1, 3]: < 100 nM; IC50 [2, 4]: > 10000 nM
14 | CCCN1CCc2cc(Nc3ncc(Cl)c(N[C@H]4[C@@H](C(N)=O)[C@@H]5C=C[C@H]4C5)n3)c(OC)cc2CC1 [Example 774, (1S,2S,3R,4R)-3-[5-Chloro-2-(8-methoxy-3-propyl-2,3,4,5-tetrahydro-1H-benzo[d]azepin-7-ylamino)-pyrimidin-4-ylamino]-bicyclo[2.2.1]hept-5-ene-2-carboxylic acid amide] |  |  | < 100 nM | > 10000 nM | 
15 | CCN1CCN(C(C)=O)c2cc(Nc3ncc(Cl)c(Nc4c(F)cccc4C(=O)NC)n3)ccc2C1 [Example 1879, 2-[2-(1-Acetyl-4-ethyl-2,3,4,5-tetrahydro-1H-benzo[e][1,4]diazepin-8-ylamino)-5-chloro-pyrimidin-4-ylamino]-3-fluoro-N-methyl-benzamide] | 100 to 1000 nM | < 100 nM |  |  | 
16 | N-((1R,2R)-2-{5-Chloro-2-[7-(2,2-difluoro-ethylamino)-6,7,8,9-tetrahydro-5H-benzocyclohepten-2-ylamino]-pyrimidin-4-ylamino}-cyclohexyl)-methanesulfonamide [Example 675] |  |  | < 100 nM | > 10000 nM | 
17 | CCN1CCN(CC)c2cc(Nc3ncc(Cl)c(Nc4ccccc4C(=O)OCCOC)n3)ccc2C1 [Example 713, 2-[5-Chloro-2-(1,4-diethyl-2,3,4,5-tetrahydro-1H-benzo[e][1,4]diazepin-8-ylamino)-pyrimidin-4-ylamino]-benzoic acid 2-methoxy-ethyl ester] |  |  | < 100 nM | 1000 to 10000 nM | 
18 | COCCN1CCc2ccc(Nc3ncc(Cl)c(Nc4c(C)cccc4C(=O)NCC#N)n3)cc2CC1 [Example 1040, 2-{5-Chloro-2-[3-(2-methoxy-ethyl)-2,3,4,5-tetrahydro-1H-benzo[d]azepin-7-ylamino]-pyrimidin-4-ylamino}-N-cyanomethyl-3-methyl-benzamide] |  |  |  |  | IC50 [1, 3]: 100 to 1000 nM; IC50 [2, 4]: 100 to 1000 nM
19 | COCCN1CCc2ccc(Nc3ncc(Cl)c(N[C@@H]4CCC[C@@H](N(CC#N)S(C)(=O)=O)C4)n3)cc2CC1 (relative stereo) [Example 1382, rel-N-((1R,3R)-3-{5-Chloro-2-[3-(2-methoxy-ethyl)-2,3,4,5-tetrahydro-1H-benzo[d]azepin-7-ylamino]-pyrimidin-4-ylamino}-cyclohexyl)-N-cyanomethyl-methanesulfonamide] |  |  |  |  | IC50 [1, 3]: 100 to 1000 nM; IC50 [2, 4]: 1000 to 10000 nM
